This note sets out measurements from ChEMBL document CHEMBL1134067, “Modeling of the binding mode of a non-covalent inhibitor of the 20S proteasome. Application to structure-based analogue design” (Bioorg Med Chem Lett, 2001).

The species named for the test is Homo sapiens. In words: In vitro inhibitory concentration against Chymotrypsin-like catalytic activity of the human 20S Proteasome. It is filed as functional.

For `COc1ccc(CN[C@@H](C(=O)N[C@H](C(=O)NCc2ccc(OC)cc2OC)C(C)C)[C@H](O)[C@H](Cc2ccccc2)NC(=O)[C@@H](NC(=O)OCc2ccccc2)C(C)C)cc1`, the IC50 is > 20 µM.

Broadly, the IC50 is the point on the concentration scale where inhibition reaches its midpoint. A high value points to a need for much substance.
